One experiment concerns skin HaCat keratinocytes. The experiment is described as follows: Cell growth inhibition assay, HaCat. It counts as cell-based, human. Particulars: 24 h incubation; mean ± SD. The protocol:
Cell growth inhibition analyses were performed on human melanoma Colo38 cells and skin HaCat keratinocytes. Human melanoma Colo38 cells were kindly given by Dr. Patrizio Giacomini (Laboratory of Immunology, Regina Elena Institute, Rome, Italy). HaCat cells were obtained from Istituto Zooprofilattico Sperimentale della Lombardia e dell’Emilia-Romagna, Brescia, Italy. Cells were seeded at 40,000 cells/mL and 25,000 cells/mL, respectively. Colo38 cells were maintained in RPMI 1640, supplemented with 10% foetal bovine serum (FBS), penicillin (100 Units/mL), and streptomycin (100 µg/mL). HaCat cells were maintained in DMEM, supplemented with 10% fatal bovine serum (FBS), penicillin (100 Units/mL), streptomycin (100 µg/mL) and glutamine (2 mM); the incubation was performed at 37 °C in a 5% CO2 atmosphere. Compounds were dissolved in DMSO to obtain 50 mM stock solutions and diluted before cell treatment in MeOH. The tested compounds were added at serial dilutions to the cell cultures (from 0.1 to 100 µM) and incubated for 24 h further. Cells were then harvested, suspended in physiological solution, and counted with a Z2 Coulter Counter (Coulter Electronics, Hialeah, FL, USA). The number of cells/mL and the IC50 values were determined when untreated cells were in the log phase of cell growth. Samples of vehicles and untreated cells were included in each plate. Cisplatin was used as positive control for the HaCat cells, while N1-(4-arylidene)-1H-(2-OH-4-N(Et)2-phenyl)-[d]imidazole-2-carbohydrazide was used as positive control for the Colo38 cell line.

A further experiment in a line: ORAC assay. The note with it: Trolox equivalents; mean ± SD. It counts as biochemical. The procedure: The ORAC assay was performed based on the previously modified Hong procedure. The sodium salt of fluorescein (85 nM) was used as a target for free radical attack with 2,2′-azobis(2-amidinopropane) dichloride (AAPH) as a peroxyl radical generator in the final assay mixture (total volume of 0.2 mL). The test involves a calibration curve of Trolox (standard control) with different concentrations (40 to 240 μM). The compounds tested were first dissolved in DMSO:MeOH and then diluted in phosphate buffer solution pH 7.4. Fluorescence measurements were performed at 37 °C and recorded at 5-min intervals up to 30 min after the addition of AAPH. ORAC values were calculated as the difference in areas under the fluorescein quenching curves between the blank and the sample and were expressed as µmol Trolox equivalents (TE) per gram of dried sample.

Experiment [1] in a line: DPPH radical scavenging activity. Particulars: values in brackets; mean ± SD. It counts as biochemical. The procedure: For all the compounds, 0.750 mL of a DMSO-MeOH solution mixed with 1.5 mL of DPPH solution (0.004%) in MeOH was analysed. The samples were kept in the dark at room temperature for 30 min and then analysed with a spectrophotometer by reading the absorbance at 517 nm (lambda max of the absorption spectrum of the DPPH radical). Equation (5) was used to obtain the percentage inhibition (%) of the radical: DPPH radical-scavenging capacity (%) = [1 − (A1 − A2)/A0] × 100%(5) where A2 is the blank (MeOH), and A1 and A0 are, respectively, the recorded absorbances of the sample and control (0.750 MeOH and 1.5 mL DPPH solution), directly proportional to the concentration of residual DPPH. An initial screening was performed by testing all compounds at a concentration of 1 mg/mL (Trolox® was used as the standard); subsequently, compounds showing >90% radical inhibition were further tested to calculate their IC50 value (expressed in µg/mL). Ferulic acid was used as positive control. A linear regression was performed to calculate the sample concentration able to eliminate 50% of DPPH free radicals.
(The DPPH test is a chemical assay of radical scavenging.)

Experiment [2] can be described thus: Ferric reducing antioxidant power (FRAP) test. Format: biochemical. The note with it: Trolox equivalents; mean ± SD. The protocol: The FRAP test, based on a colorimetric reaction, can assess the ability of a sample to reduce ferric ions to ferrous ions when complexed with 2,4,6-trispiridyl-s-triazine (TPTZ). The FRAP solution consisted of 0.1 M acetate buffer (pH 3.6), 10 mmol/L of TPTZ in 40 mM HCl and a 20 mM solution of FeCl3, in a 10:1:1 ratio. A 1.9 mL volume of the FRAP solution was incubated with 0.1 mL of the sample solution at 37 °C for 10 min. The absorbance was then read with a UV-Vis spectrophotometer at a wavelength of 593 nm, which corresponds to the maximum absorbance peak of the Fe^2+-TPTZ complex. Trolox® was used as a standard, and ferulic acid was used as positive control, and the results are expressed as µmol TE/g.

The subject of a further experiment is primary human monocytes. The experiment is described as follows: Lipid mediator (LM) formation in primary human monocytes. Format: cell-based. Particulars: diclofenac 1 µM; A23187 2.5 µM, 30 min. The source says: Monocytes and polymorphonuclear leukocytes (PMNL) were freshly isolated from human blood. Human blood and leukocyte concentrates were provided by the Institute for Transfusion Medicine of the University Hospital Jena (Thuringia, Germany). The protocols for experiments with human blood and blood cells were approved by the ethical commission of the Friedrich Schiller University of Jena. Following blood density centrifugation and separation of cell populations, peripheral blood mononuclear cells (PBMC) were left to adhere for 1 h to cell culture flasks (monocyte-enriched PBMC). Non-adherent cells were washed off from the adherent monocytes, before pre-incubating monocytes (5 × 10^6 cells/mL) with the test compounds for 10 min at 37 °C. LM formation was elicited with A23187 (2.5 µM) and CaCl2 (1 mM) over 30 min. The reaction was stopped with 1 mL of ice-cold methanol containing 10 µL of deuterium-labelled internal LM standards (200 nM d8-5S-HETE, d4-LTB4, d5-LXA4, d5-RvD2, d4-PGE2 and 10 µM d8-AA). LMs were extracted using Sep-Pak C18 35 cc Vac Cartridges (Waters, Milford, MA, USA) and analysed by UPLC-MS/MS as described by Pein et al..
The ability to modulate LM formation was screened in primary human monocytes expressing the enzymes required for PGE2, LTB4, and 12-HETE production (Figure 2A). Cells were pre-treated with the test compounds BZTst1–6 (10 µM) or the reference COX inhibitor diclofenac (1 µM) for 10 min prior to stimulation with the calcium ionophore A23187 (2.5 µM) for 30 min.

Usually IC50 stands for the concentration that gives 50% inhibition. Lower therefore signals greater potency in that assay.

Compound `N.N.[Cl][Pt][Cl]` [Cisplatin, reference compound] came in with an IC50 in the experiment with skin HaCat keratinocytes of 2 ± 0.4 µM. With `COc1cc(/C=C/C(=O)O)ccc1O` [Ferulic Acid, reference compound], the ORAC in the experiment “ORAC assay” is 15,906.40 ± 14.20 µmolTE/g. Besides, the “DPPH IC50 (sample concentration able to scavenge 50% of the DPPH radical)” value in experiment [1] is recorded as “(9.90 ± 0.70) µg/mL”. Besides, the FRAP in experiment [2] was determined as 6872.60 ± 10.70 µmolTE/g. Consider `O=C(O)Cc1ccccc1Nc1c(Cl)cccc1Cl` [diclofenac, reference compound], for which the PGE2 formation result in the experiment on primary human monocytes is reported as “significantly downregulated”.

(Values after article PMC11504387, “Synthesis and Biological Activity Assessment of 2-Styrylbenzothiazoles as Potential Multifunctional Therapeutic Agents” (Antioxidants, 2024).)
